≈ marks a conversion by molar mass, not a printed value. Like-named read-outs stand apart in the source and are kept apart here.
What was measured:
P-gp (MDR1) = target: T1, P-gp (MDR1) (Homo sapiens, UniProt P08183); assay: MDCK/MDR1 permeability and efflux; type: in vitro ADME; details: dog
T1 construct: expressed in transfected cells; host or cells: MDCK (Madin Darby canine kidney) cells
From the text: Our approach was to target compounds with efflux ratio (ER) >2.5 in the MDCK cell line transfected with MDR1 (multidrug resistance-1 transfected Madin Darby canine kidney cell line). […] Our goal was to impart structural elements designed to impart Pgp recognition.

[1] = Kinetic solubility measurement; type: physicochemical
Description: Kinetic Solubility Measurement: The standard kinetic solubility assay runs on […] concentration range using 10 mM DMSO stock solutions for plating. Single point calibration assay runs in duplicates. Concentration of standards: […] DMSO solutions prepared by diluting 10 mM stock, solution with DMSO. Concentration of samples: 200 µM, 4 µl 10 mM DMSO stock solution diluted with the appropriate buffer to […]. DMSO content:
2%. Buffers: pH=7.4 (0.1M Potassium phosphate buffer, diluted from Sigma 1M P3619-1GA to 0.1 M with MilliQ water), pH=2.2 (0.1M- NaCl pH adjusted with 0.1N HCL), pH=6.8 (0.1M - KH2PO4/K2HPO4), pH=5 (4 .04g of NaOH (Pellets), 8.65g of Glacial Acetic Acid, 11.874g of NaCl. In in 1 liter water. Adjusted to pH to 5 with either 1N NaOH or 1N HCl). The controls were plated from the standard 10 mM DMSO stock and run on the standard concentration (200µM) range of the assay. Incubation time: 24 hours shaking at […] in Millipore Multiscreen HTS filter plate for Aqueous Solubility Assay (MSSLBPC50), on room temperature.
After incubation time filtration with positive pressure manifold was performed. […]

[2] = LogD measurement (octanol-water); type: physicochemical
Description: LogD Measurement: Measurement of octanol-water distribution coefficient of samples using a […]
stock solutions for plating. Aqueous Phase: 100mM Buffer, pH=7.4 (0.1M Potassium phosphate buffer, diluted from Sigma 1M P3619-1GA to 0.1 M with MilliQ water), pH=2.2 (0.1M- NaCl pH adjusted with 0.1N HCL), pH=6.8 (0.1M - KH2PO4/K2HPO4), pH=5 (4 .04g of NaOH (Pellets), 8.65g of Glacial Acetic Acid, 11.874g of NaCl. In in 1 liter water. Adjusted to pH to 5 with either 1N NaOH or 1N HCl); Organic Phase: 1-Octanol (O021). Sample Concentration:
1000uM, […] 10 mM DMSO stock solution diluted in […] of organic Phase and […] of aqueous Phase. DMSO content: 10%. The controls were plated from the standard 10 mM DMSO stock and run on the standard concentration ([…]) range of the assay. Incubation time:
Sonication for 30 minutes followed by 24 hours shaking at 750 rpm in 96 deep well plate (VWR

[3] = system: O. gutturosa adult male worms; assay: O. gutturosa adult worm ex vivo assay, MTT/formazan viability; type: cell-based, Onchocerca gutturosa; details: supplement, SD in brackets in the PDF table, read-out: O. gutturosa EC50 (uM) MTT viability inhibition
Description: (§1) Activity against O. gutturosa adult male worms was determined using reported procedures.[7] The EC50 values were calculated using Microsoft Office Excel (2010) data analysis software. The tested compound is considered active when a motility reduction of ≥50% is observed by comparison to the untreated controls. O. gutturosa adult male worms were obtained postmortem from freshly slaughtered cattle. The worms were dissected from the nuchal ligament connective tissues of naturally infected cattle in Gambia, West Africa; the material was purchased from the International Trypanotolerance Centre, Banjul, from local butchers for use in this study. The adult worms were transferred individually to each well of a sterile 24-well (2 mL) plate (Thermo Fisher Scientific, UK) and maintained for at least 24 h in culture before use. The medium used was a minimum essential medium (MEM) with Earl’s salts and L-glutamine (Life Technologies Ltd., UK) supplemented with 10% heat inactivated newborn calf serum (Life Technologies Ltd., UK), 200 units/mL penicillin, 200 μg/mL streptomycin, and 0.5 μg/mL amphotericin B (Life Technologies Ltd., UK). Only normally active worms were used for the test, and all assays were conducted at 37 °C and 5% CO2. The positive control drug used was Immiticide (melarsomine dihydrochloride, Merial, USA). Known amounts of compounds were solubilized in 1 mL of DMSO. All stock solutions were allowed to stand at room temperature prior to use. The test items (four worms/drug concentration) were compared to untreated controls (six worms) and the positive control (two worms/drug concentration). Drug efficacy was assessed by the measurement of mean worm motility scores on a scale of 0 (immotile) to 10 (maximum) every 24 h, terminating at 120 h, using an Olympus inverted microscope. The results are reported as a percentage of the maximum score obtainable (100%) by calculating the motility index scores. The test drug is considered active when a motility reduction of ≥50% is observed by comparison to the untreated controls. […] In addition, biochemical evaluation of worm viability was assessed using MTT/formazan colorimetry. The MTT assay was carried out after the last motility reading (120 h). Single intact worms were placed in each well of a 48-well plate (Thermo Fisher Scientific, UK) containing 0.5 mL of 0.5 mg/mL MTT (Sigma, UK) in PBS solution and then incubated for 30 min at 37 °C. The worms were removed, blotted carefully, and individually transferred to separate wells of a 96-well microtiter plate, each containing 200 μL of DMSO to solubilize the formazan. After 1 h, the plate was gently agitated to disperse the color evenly and the absorbance value (optical density, OD) of the resulting formazan solution was determined at 490 nm using an absorbance microplate reader (Biotek ELx800, Thermo Fisher Scientific, UK). The results are expressed as the mean OD per drug concentration. Inhibition of formazan formation is correlated with worm damage or death.

[4] = system: O. gutturosa adult male worms; assay: O. gutturosa adult worm ex vivo assay, motility; type: cell-based, Onchocerca gutturosa; details: Onchocerca gutturosa
Description: as §1
Data S1. Onchocerca gutturosa adult male worms EC 50 Curves
Plotted using Graph Pad Prism 7.03, least square original fit, sigmoidal, 4PL
The measurement of mean worm motility every 24 h, terminating at 120 h, serial 1 in 4 drug dilutions to find
activity endpoint and produce EC50 values (geomean, n=2) for motility reduction. (4 worms per drug […]

[5] = target: T2, hERG potassium channels (KCNH2, expressed in HEK293 cells) (Homo sapiens, UniProt Q12809); assay: hERG inhibition; type: cell-based; details: supplement
T2 construct: expressed in transfected cells

THLE-2 cells = assay: THLE-2 cytotoxicity assay (ATP); details: Homo sapiens, THLE-2, read-out: THLE IC50
Description: In vitro cytotoxicity of select compounds was tested in a “normal” proliferating transformed human liver epithelial (THLE-2) cell line.[35] Compounds were incubated in THLE-2 cells for 24 and 72 h, and adenosine triphosphate (ATP) levels were used as an indicator of cell viability.
THLE-2 Cytotoxicity Assay: THLE-2 cells (ATCC, catalog #CRL-2706) were plated in LHC-8 Media (Invitrogen, catalog #12679015) supplemented with fetal bovine serum (GE, catalog #SH30088.03), 70 ng/mL phosphoethanolamine (Sigma, catalog #P0503), 5 ng/mL EGF (Sigma, catalog #E9644), 1X penicillin/streptomycin (Gibco, catalog #15140148), and 1X glutamine (Invitrogen, catalog #25030024) in 384-well clear-bottom, black walled plates at a density of 3750 cells/well (15μL/well). After plating, cells were incubated overnight at 37°C in an incubator with 5% CO2 and 90% humidity. Compounds were first serially diluted in dimethyl sulfoxide then diluted in LHC-8 media growth media to 2X concentration. Cells were dosed with 15μL of each dose for final concentrations between 0.01 – 300 μM. Cells were incubated with compounds for 24 or 72 hours. Cytotoxicity was determined with Cell Titer Glo Luminescent ATP Assay (Promega, catalog #G7573) according to the manufacturer’s instructions. Tamoxifen (Sigma, catalog #BC9353476) was used as a positive control. levels at each dose were normalized to that of cells dosed with dimethyl sulfoxide vehicle alone and IC50 values were calculated from non-linear regression fits of dose-response curves plotted

[6] = Liver S9 metabolic stability assay, rat; type: in vitro ADME; details: 3 μM, 60 min
Description: (§2) Liver S9 Metabolic Stability Assay: Incubations were performed at 37 °C in a Dubnoff Shaking water bath using 2 mL 96-well incubation plates. Rat and human S9 protein concentrations were 0.75 mg/ml and 1.2 mg/ml, respectively. The final concentrations of NADPH, UDPGA, and GSH were 1, 0.5, and 2.5 mM, and the final concentration of PAPS was 0.05 mg/ml. Substrate concentrations were 3µM, incubation time was 60 minutes, and all tests were done in triplicate. The incubation was conducted in 200 mM Tris buffer containing 2 mM magnesium chloride, pH=7.4 and the total incubation volume was 0.5 ml. Samples were analysed via LC-MS/MS and reported as percentage remaining after incubation for 60 minutes. […]

[7] = Liver S9 metabolic stability assay, human; type: in vitro ADME; details: 3 μM, 60 min
Description: as §2

[8] = supplement, read-out: measured logD
[9] = read-out: O. gutturosa EC50 μM (SD), ex vivo adult worm motility reduction, SD in brackets
[10] = read-out: O. gutturosa EC50 (uM) motility inhibition, supplement, SD in brackets in the PDF table

T1 sequence (P08183 whole entry): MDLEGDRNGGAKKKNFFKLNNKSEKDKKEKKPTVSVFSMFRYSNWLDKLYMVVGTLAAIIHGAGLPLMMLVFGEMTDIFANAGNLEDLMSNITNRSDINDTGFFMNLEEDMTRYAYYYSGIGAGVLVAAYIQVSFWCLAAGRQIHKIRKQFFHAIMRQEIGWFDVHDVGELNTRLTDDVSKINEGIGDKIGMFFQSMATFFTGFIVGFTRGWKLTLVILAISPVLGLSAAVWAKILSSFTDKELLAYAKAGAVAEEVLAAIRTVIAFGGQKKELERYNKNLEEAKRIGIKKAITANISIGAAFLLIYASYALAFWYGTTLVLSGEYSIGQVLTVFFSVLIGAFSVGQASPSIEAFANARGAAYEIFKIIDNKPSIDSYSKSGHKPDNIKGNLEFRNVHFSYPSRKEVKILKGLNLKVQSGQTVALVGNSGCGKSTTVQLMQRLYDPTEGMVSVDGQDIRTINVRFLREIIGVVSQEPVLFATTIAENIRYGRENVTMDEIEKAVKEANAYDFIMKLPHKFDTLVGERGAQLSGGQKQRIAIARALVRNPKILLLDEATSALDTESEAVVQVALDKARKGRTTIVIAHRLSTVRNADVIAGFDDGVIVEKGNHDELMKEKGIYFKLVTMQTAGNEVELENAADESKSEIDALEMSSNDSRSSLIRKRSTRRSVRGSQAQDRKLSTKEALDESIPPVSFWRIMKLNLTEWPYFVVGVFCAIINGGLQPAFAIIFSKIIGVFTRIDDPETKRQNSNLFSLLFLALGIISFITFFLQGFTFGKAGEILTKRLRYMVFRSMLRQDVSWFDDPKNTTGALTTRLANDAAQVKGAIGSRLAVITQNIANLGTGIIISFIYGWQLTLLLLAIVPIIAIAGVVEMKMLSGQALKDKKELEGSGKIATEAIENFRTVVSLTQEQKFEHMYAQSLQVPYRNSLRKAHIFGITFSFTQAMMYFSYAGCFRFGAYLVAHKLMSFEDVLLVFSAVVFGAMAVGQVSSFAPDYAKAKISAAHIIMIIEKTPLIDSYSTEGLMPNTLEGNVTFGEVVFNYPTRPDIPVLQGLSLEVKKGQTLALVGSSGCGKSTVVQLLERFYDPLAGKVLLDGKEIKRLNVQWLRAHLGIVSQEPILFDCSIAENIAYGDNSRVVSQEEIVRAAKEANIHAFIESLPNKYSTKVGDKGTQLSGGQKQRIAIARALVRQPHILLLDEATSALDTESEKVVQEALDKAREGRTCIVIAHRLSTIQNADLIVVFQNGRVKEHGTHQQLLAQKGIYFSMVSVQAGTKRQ
T2 sequence (Q12809 whole entry): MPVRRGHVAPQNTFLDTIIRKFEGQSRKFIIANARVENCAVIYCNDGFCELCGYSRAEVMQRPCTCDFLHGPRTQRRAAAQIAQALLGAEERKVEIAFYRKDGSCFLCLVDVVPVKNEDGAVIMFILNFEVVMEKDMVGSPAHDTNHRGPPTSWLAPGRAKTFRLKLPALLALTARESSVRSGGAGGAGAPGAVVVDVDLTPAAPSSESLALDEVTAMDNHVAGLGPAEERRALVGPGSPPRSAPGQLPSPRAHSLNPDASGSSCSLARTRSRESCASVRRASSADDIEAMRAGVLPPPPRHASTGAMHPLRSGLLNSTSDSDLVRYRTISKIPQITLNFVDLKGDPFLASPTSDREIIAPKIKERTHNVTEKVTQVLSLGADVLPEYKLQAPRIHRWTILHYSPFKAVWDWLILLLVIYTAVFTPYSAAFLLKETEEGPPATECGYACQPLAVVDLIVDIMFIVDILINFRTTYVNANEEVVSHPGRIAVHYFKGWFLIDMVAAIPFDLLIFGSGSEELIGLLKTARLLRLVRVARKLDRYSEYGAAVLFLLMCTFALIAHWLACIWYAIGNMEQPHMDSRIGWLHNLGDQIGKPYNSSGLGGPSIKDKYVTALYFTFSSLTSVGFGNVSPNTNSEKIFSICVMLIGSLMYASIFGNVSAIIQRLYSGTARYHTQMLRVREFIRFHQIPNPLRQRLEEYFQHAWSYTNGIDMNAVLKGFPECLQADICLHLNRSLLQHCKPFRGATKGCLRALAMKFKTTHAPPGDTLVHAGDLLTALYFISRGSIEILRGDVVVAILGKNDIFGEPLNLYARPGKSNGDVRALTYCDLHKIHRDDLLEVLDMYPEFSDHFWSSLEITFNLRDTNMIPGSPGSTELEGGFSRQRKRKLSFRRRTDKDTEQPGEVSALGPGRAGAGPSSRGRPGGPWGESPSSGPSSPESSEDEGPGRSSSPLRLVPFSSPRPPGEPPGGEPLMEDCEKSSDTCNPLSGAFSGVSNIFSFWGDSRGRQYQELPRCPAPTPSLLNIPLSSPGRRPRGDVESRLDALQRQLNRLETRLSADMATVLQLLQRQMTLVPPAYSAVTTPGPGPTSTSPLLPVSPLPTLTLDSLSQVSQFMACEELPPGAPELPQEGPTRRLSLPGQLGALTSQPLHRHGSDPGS

CC(=O)N(C)c1cc(C(F)(F)F)cnc1Nc1nc(-c2ccc(OC(C)C)cn2)ns1 [Compound 54, N-(2-((3-(5-Isopropoxypyridin-2-yl)-1,2,4-thiadiazol-5-yl)amino)-5-(trifluoromethyl)pyridin-3-yl)-N-methylacetamide]
Papp A→B (P-gp (MDR1)): 99 nm/s
solubility kinetic at 24 h ([1]; 10 mM DMSO stock solutions): 13.1 µM (≈ 5.95 µg/mL)
logD at 24 h ([2]; pH 7.4, read-out: logD): 3.13
logD at 24 h [2, 8]: 3.13
EC50 ([3]; Onchocerca gutturosa): 0.15 µM
EC50 [4, 9]: 0.14 µM
EC50 [4, 10]: 0.139 µM
IC50 [5]: > 30 µM
IC50 (THLE-2 cells): 6.1 µM

Cc1cccnc1Nc1nc(-c2ccc(C(=O)N(C)C)cn2)ns1 [Compound 18, N,N-Dimethyl-6-(5-((3-methylpyridin-2-yl)amino)-1,2,4-thiadiazol-3-yl)nicotinamide]
Rat S9 metabolic stability [6]: 94 % remaining
solubility kinetic at 24 h ([1]; 10 mM DMSO stock solutions): 73.2 µM (≈ 24.9 µg/mL)
logD at 24 h ([2]; pH 7.4, read-out: logD): 1.7
logD at 24 h [2, 8]: 1.7
EC50 ([3]; Onchocerca gutturosa): 0.09 µM
EC50 [3]: 0.087 µM
EC50 [4, 9]: 0.06 µM
EC50 [4, 10]: 0.062 µM
IC50 [5]: > 30 µM
Human S9 metabolic stability [7]: 97 % remaining

CC(=O)N(C)c1cccnc1Nc1nc(-c2cc(C(F)(F)F)c(OC(C)C)cn2)ns1 [Compound 48]
Papp A→B (P-gp (MDR1)): 69 nm/s
solubility kinetic at 24 h ([1]; 10 mM DMSO stock solutions): 10.8 µM (≈ 4.86 µg/mL)
solubility kinetic at 24 h ([1]; supplement): 10.8 µM (≈ 4.89 µg/mL)
logD at 24 h ([2]; pH 7.4, read-out: logD): 3.5
logD at 24 h [2, 8]: 3.5
EC50 ([3]; Onchocerca gutturosa): 1.05 µM
EC50 [4, 9]: 3.71 µM
IC50 [5]: 26 µM
IC50 (THLE-2 cells): 8.3 µM

CC(=O)N(C)c1cnc(Nc2nc(-c3ccc(OC(C)C)cn3)ns2)c(C)c1 [Compound 51]
Papp A→B (P-gp (MDR1)): 303 nm/s
solubility kinetic at 24 h ([1]; 10 mM DMSO stock solutions): 15 µM (≈ 5.98 µg/mL)
logD at 24 h ([2]; pH 7.4, read-out: logD): 2.2
logD at 24 h [2, 8]: 2.2
EC50 ([3]; Onchocerca gutturosa): 0.46 µM
EC50 [4, 9]: 0.49 µM
EC50 [4, 10]: 0.488 µM

CC(=O)N(C)c1cc(C(F)(F)F)cnc1Nc1nc(-c2cc(OC(C)C)ccn2)ns1 [Compound 55, N-(2-((3-(4-Isopropoxypyridin-2-yl)-1,2,4-thiadiazol-5-yl)amino)-5-(trifluoromethyl)pyridin-3-yl)-N-methylacetamide]
Papp A→B (P-gp (MDR1)): 17 nm/s
logD at 24 h ([2]; pH 7.4, read-out: logD): 3
logD at 24 h [2, 8]: 3
EC50 ([3]; Onchocerca gutturosa): 0.04 µM
EC50 [4, 9]: 0.01 µM
EC50 [4, 10]: 0.013 µM

CC(C)Oc1cccnc1-c1nsc(Nc2ncc(C(F)(F)F)cc2C(=O)N(C)C)n1 [Compound 58, 2-[[3-(3-Isopropoxy-2-pyridyl)-1,2,4-thiadiazol-5-yl]amino]-N,N-dimethyl-5-(trifluoromethyl)pyridine-3-carboxamide]
Papp A→B (P-gp (MDR1)): 112 nm/s
solubility kinetic at 24 h ([1]; 10 mM DMSO stock solutions): 130 µM (≈ 58.9 µg/mL)
logD at 24 h ([2]; pH 7.4, read-out: logD): 2.15
logD at 24 h [2, 8]: 2.15
EC50 ([3]; Onchocerca gutturosa): 1.5 µM
EC50 [4, 9]: 0.62 µM
EC50 [4, 10]: 0.621 µM

Cc1cccnc1Nc1nc(-c2cc(C#N)c(OC(C)C)cn2)ns1 [Compound 15]
Rat S9 metabolic stability [6]: 84 % remaining
solubility kinetic at 24 h ([1]; 10 mM DMSO stock solutions): 0.3 µM (≈ 0.106 µg/mL)
logD at 24 h ([2]; pH 7.4, read-out: logD): 2.3
logD at 24 h [2, 8]: 2.3
EC50 ([3]; Onchocerca gutturosa): 0.71 µM
EC50 [4, 9]: 1.37 µM
IC50 [5]: > 30 µM
Human S9 metabolic stability [7]: 100 % remaining

Cc1cccnc1Nc1nc(-c2ccc(OC3CCOCC3)cn2)ns1 [Compound 3]
Rat S9 metabolic stability [6]: 82 % remaining
solubility kinetic at 24 h ([1]; 10 mM DMSO stock solutions): 7.3 µM (≈ 2.7 µg/mL)
logD at 24 h [2, 8]: 2.2
EC50 ([3]; Onchocerca gutturosa): 0.24 µM
EC50 [4, 9]: 0.03 µM
EC50 [4, 10]: 0.027 µM
EC50 ([4]; read-out: O. gutturosa EC50, adult worm motility, bound stated): < 0.1 µM
IC50 [5]: 19 µM
Human S9 metabolic stability [7]: 84 % remaining

CC(C)Oc1cnc(-c2nsc(Nc3ncccc3N3CCCC3=O)n2)cc1C(F)(F)F [Compound 52, 1-(2-((3-(5-Isopropoxy-4-(trifluoromethyl)pyridin-2-yl)-1,2,4-thiadiazol-5-yl)amino)pyridin-3-yl)pyrrolidin-2-one]
Papp A→B (P-gp (MDR1)): 129 nm/s
solubility kinetic at 24 h ([1]; 10 mM DMSO stock solutions): 9.95 µM (≈ 4.62 µg/mL)
logD at 24 h ([2]; pH 7.4, read-out: logD): 2.7
logD at 24 h [2, 8]: 2.7
EC50 ([3]; Onchocerca gutturosa): 1.95 µM
EC50 [4, 9]: 1.73 µM
